The results in this text go back to ChEMBL document CHEMBL5729244, “Heterocycle compounds as Tyro3, Axl and MerTK (TAM) family of receptor tyrosine kinase inhibitors” (2022).

pIC50: −log10 of the molar value. Some results are limits rather than exact numbers.

Test [1] concerns the target T1, Tyrosine-protein kinase receptor UFO (Homo sapiens, UniProt P30530).
T1 sequence (P30530 whole entry): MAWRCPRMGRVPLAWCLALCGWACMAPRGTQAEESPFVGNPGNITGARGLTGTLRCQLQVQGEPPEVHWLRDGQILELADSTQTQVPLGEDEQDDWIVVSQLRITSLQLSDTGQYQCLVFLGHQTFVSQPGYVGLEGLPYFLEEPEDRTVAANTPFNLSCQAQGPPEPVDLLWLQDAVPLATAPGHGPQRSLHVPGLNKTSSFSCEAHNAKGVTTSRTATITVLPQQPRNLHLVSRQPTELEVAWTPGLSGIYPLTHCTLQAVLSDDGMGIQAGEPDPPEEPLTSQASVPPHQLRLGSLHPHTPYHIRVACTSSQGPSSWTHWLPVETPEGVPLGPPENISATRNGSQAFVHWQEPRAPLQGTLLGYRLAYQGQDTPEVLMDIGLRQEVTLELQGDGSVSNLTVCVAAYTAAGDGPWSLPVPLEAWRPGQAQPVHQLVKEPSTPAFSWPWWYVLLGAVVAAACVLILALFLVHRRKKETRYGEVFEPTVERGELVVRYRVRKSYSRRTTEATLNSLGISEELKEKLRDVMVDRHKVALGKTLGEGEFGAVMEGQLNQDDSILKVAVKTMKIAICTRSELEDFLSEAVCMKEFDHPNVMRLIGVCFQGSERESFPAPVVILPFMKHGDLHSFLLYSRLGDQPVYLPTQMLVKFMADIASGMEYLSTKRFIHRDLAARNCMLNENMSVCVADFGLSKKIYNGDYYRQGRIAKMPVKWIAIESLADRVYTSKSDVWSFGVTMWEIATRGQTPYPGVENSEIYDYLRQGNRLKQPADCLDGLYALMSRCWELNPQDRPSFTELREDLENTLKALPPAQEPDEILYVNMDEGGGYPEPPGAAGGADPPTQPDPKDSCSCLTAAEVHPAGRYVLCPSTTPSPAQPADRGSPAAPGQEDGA

In test [2] the target is T2, Tyrosine-protein kinase Mer (Homo sapiens, UniProt Q12866).
T2 sequence (Q12866 whole entry): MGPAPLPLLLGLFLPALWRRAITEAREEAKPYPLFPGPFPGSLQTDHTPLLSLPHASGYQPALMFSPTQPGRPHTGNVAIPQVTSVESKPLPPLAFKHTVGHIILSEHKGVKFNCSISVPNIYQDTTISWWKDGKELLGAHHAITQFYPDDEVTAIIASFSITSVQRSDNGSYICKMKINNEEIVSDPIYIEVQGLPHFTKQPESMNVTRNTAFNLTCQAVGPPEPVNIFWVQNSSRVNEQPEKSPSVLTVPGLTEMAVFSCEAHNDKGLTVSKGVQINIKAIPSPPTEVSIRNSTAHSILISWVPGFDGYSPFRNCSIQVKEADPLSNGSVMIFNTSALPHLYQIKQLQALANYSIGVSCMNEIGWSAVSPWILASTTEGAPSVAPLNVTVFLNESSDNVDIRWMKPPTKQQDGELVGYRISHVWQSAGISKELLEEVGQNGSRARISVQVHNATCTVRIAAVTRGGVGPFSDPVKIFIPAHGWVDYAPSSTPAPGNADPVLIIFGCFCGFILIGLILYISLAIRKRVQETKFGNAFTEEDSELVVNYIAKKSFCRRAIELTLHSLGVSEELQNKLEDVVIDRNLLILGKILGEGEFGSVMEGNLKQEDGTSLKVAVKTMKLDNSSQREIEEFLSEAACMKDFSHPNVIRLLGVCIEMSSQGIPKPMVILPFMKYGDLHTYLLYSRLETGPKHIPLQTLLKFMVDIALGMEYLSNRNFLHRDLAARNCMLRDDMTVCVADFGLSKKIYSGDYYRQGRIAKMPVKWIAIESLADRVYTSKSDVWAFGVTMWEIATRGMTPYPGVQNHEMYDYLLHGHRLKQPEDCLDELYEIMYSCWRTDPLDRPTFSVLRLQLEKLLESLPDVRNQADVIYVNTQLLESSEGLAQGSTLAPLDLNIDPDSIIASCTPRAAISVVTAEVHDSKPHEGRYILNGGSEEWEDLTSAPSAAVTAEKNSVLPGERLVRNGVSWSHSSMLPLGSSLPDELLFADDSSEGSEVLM

With `COCCOc1nc(Nc2ccc(CN3CCN(C)CC3)cc2)nc2[nH]cc(-c3ccc4c(n3)CN(C)S4(=O)=O)c12`, the pIC50 was greater than 7.52 in test [1] and less than 6.00 in test [2]. In turn, `COc1nc(Nc2ccc(CN3CCC(C)CC3)cc2)nc2[nH]cc(-c3ccc(F)cc3F)c12` had a negative-log IC50 (pIC50) in test [1] greater than 7.52.
